pIC50: −log10 of the molar value.
What was measured:
22RV1 cells = experiment: Cell proliferation assay, CellTiter Glo; type: cell-based; details: Homo sapiens, 22Rv1, 72 h; cell growth inhibition, three days of treatment
Description: (§1) a. […] IC50s were determined using 8 concentrations/compound. […] Ki=IC50/(1+[L]/Kd) c.
(§2) Cells were plated at varying density in the respective growth medium in 96 well plates. 24 hr later, cells were treated, in triplicate or quadruplicate, with test articles prepared in a range of concentrations by series dilution of DMSO stock solutions in growth medium and incubated for three to seven days. The number of viable 22RV1 and HT-29 cells was measured using CellTiter Glo assay (CTG, Promega, Madison, WI) after three days of treatment. Cell viability data were plotted using GraphPad Prism (GraphPad Software, Inc., San Diego, CA). In addition, a nonlinear regression model with a sigmoidal dose response and variable slope within GraphPad Prism was used to calculate the IC50 value of individual test articles.

HT-29 cells = experiment: Cell proliferation assay, CellTiter Glo; type: cell-based; details: Homo sapiens, HT-29, 72 h; cell growth inhibition, three days of treatment
Description: as §1, §2

Human recombinant PARP1 = Human recombinant PARP1 (Homo sapiens (Human), UniProt P09874); experiment: RBC HotSpot PARP1 radioisotope-based filter binding assay; details: read-out: PARP1 IC50; 2.5 nM PARP1, histone H4, 10 μM 32P-NAD+
Chain of Human recombinant PARP1 (P09874 whole entry): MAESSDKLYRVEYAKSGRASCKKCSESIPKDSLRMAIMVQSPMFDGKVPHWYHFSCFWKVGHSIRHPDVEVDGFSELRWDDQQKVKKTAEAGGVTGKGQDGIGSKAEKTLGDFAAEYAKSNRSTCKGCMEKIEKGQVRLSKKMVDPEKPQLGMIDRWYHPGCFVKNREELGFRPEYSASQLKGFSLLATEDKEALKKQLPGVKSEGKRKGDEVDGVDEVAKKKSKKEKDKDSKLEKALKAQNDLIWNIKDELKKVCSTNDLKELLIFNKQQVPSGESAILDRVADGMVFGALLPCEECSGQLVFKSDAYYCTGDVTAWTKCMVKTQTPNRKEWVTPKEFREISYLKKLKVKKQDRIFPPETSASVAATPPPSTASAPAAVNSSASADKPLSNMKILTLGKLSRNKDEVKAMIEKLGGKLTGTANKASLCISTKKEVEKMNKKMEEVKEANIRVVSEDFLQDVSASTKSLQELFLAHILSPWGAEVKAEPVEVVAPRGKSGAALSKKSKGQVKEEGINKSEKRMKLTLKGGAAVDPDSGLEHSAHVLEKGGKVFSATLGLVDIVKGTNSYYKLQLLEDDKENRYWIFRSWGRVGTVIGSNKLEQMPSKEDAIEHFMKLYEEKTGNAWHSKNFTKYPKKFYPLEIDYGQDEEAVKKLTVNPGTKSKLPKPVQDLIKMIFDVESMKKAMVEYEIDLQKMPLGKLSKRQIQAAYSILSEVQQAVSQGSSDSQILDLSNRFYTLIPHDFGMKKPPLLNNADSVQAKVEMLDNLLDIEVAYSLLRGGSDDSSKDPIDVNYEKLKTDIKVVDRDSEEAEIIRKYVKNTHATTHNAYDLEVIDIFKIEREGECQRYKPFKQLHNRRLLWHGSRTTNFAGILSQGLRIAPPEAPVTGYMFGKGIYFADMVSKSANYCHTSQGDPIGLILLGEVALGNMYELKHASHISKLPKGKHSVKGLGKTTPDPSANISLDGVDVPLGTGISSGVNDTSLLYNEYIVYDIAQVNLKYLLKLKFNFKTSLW
Description: (§3) RBC HotSpot Poly(ADP-ribose) Polymerases 1 (PARP1) and Poly(ADP-ribose) Polymerases 2 (PARP2) Assays: The assay was conducted at Reaction Biology Corporation (RBC; Malvern, PA). The assay principle is radioisotope-based filter binding assay where incorporation of radioisotope-labeled NAD^+ into the substrate captured on filter is detected after washout free NAD^+. Data were analyzed using Excel and GraphPad Prism software for IC50 curve fits. Each assay was conducted with PJ34 as a positive control. PARP1 assay: Human recombinant PARP1 at a final concentration of 2.5 nM was combined with histone H4 (20 μM) and test articles at various concentrations in reaction buffer (50 mM Tris-HCL, pH 8.0, 50 mM NaCl, 10 mM MgCl2, 1 mM DTT, 1% DMSO, and 20 μg/mL activated DNA). The solution was inoculated for 20 min at room temperature and the reaction initiated by adding [adenylate-^32P]-Nicotinamide Adenine Dinucleotide, ^32P-NAD^+ at a final concentration of 10 μM. After incubation for 2 hrs at room temperature, the reaction mixture was filtered and washed with 0.75% phosphoric acid for radioactivity detection. • ii. PARP2 assay: Human recombinant PARP2 at a final concentration of 2.5 nM was combined with histone H3 (20 μM) and test articles at various concentrations in reaction buffer (50 mM Tris-HCL, pH 8.0, 50 mM NaCl, 10 mM MgCl2, 1 mM DTT, 1% DMSO, and 20 μg/mL activated DNA). The solution was inoculated for 20 min at room temperature and the reaction was initiated by adding [adenylate-^32P]-Nicotinamide Adenine Dinucleotide, ^32P-NAD^+ at a final concentration of 10 μM. After incubation for 2 hrs at room temperature, the reaction mixture was filtered and washed with 0.75% phosphoric acid for radioactivity detection. b. AR binding assay: AR in LNCaP cytosol was used for determining the binding affinity of test articles and the reference compound—progesterone (Sigma, Cat: E2785, St. Louis, MO). IC50s were determined using 8 concentrations/compound. Cytosol was plated at 200 μg/well (100 μL) into a 96-well conical polypropylene plate (Agilent, Cat: 5042-1385, Santa Clara, CA) and mixed with 3 μL of test compound. After adding 100 μL of ^3H-methyltrienolone (PerkinElmer, Cat: NET590250UC, San Jose, CA), the plate was sealed and shaken at 300 rpm at 4° C. for 24 hours. Post incubation, 100 μL of radioligand adsorption buffer containing 10 mM Tris-HCl, pH 7.4; 1.5 mM EDTA; 1 mM DTT; 0.25% charcoal; 0.0025% dextran was added to individual well. Plate was shaken for 15 min at 4° C. followed by centrifugation at 3000 rpm for 30 min at 4° C. 150 μL of supernatant was transferred into scint-tube (PerkinElmer, Cat: 6000192) and mixed with 2 mL of Ultima Gold Cocktail (PerkinElmer, Cat: 6013329). Radioactivity was counted using a TriCarb 2910 TR scintillation counter (PerkinElmer). Inhibition of the radioactivity by test articles were calculated using the equation below: % Inhibition=(1−(Assay well-Average_LC)/(Average_HC-Average_LC))×100%. IC50 values were calculated and graphed using the model “log(inhibitor) vs. response—Variable slope” included in GraphPad Prism 5 (San Diego, CA). […] Ki=IC50/(1+[L]/Kd) c.

Human recombinant PARP2 = Human recombinant PARP2 (Homo sapiens (Human), UniProt Q9UGN5); experiment: RBC HotSpot PARP2 radioisotope-based filter binding assay; details: read-out: PARP2 IC50; 2.5 nM PARP2, histone H3, 10 μM 32P-NAD+
Chain of Human recombinant PARP2 (Q9UGN5 whole entry): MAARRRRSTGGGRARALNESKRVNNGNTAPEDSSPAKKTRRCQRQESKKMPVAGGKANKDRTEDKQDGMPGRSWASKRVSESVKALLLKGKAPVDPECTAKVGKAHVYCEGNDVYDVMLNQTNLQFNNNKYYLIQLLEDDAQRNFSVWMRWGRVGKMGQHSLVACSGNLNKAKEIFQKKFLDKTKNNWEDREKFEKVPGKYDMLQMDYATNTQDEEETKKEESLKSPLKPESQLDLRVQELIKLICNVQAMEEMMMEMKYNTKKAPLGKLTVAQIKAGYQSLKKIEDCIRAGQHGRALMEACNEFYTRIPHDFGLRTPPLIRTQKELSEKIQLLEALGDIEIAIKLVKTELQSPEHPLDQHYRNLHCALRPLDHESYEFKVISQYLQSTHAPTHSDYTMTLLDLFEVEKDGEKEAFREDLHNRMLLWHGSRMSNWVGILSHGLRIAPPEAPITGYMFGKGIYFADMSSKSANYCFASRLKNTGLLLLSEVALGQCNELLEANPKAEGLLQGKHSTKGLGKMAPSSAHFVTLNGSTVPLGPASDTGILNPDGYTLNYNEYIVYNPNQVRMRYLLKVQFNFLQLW
Description: as §3

Row | Structure (SMILES) | pIC50 (22RV1 cells) | pIC50 (HT-29 cells) | pIC50 (Human recombinant PARP1) | pIC50 (Human recombinant PARP2)
1 | Cn1ncnc1[C@H]1c2n[nH]c(=O)c3cc(F)cc(c23)N[C@@H]1c1ccc(OC[C@](C)(O)C(=O)Nc2ccc(C#N)c(C(F)(F)F)c2)cc1 [Compound 1.1a, (S)—N-(4-cyano-3-(trifluoromethyl)phenyl)-3-(4-((8S,9R)-5-fluoro-9-(1-methyl-1H-1,2,4-triazol-5-yl)-3-oxo-3,7,8,9-tetrahydro-2H-pyrido[4,3,2-de]phthalazin-8-yl)phenoxy)-2-hydroxy-2-methylpropanamide] | < 5.00 | < 5.00 | < 6.00 | < 6.00
2 | Cn1ncnc1[C@@H]1c2n[nH]c(=O)c3cc(F)cc(c23)N[C@H]1c1ccc(OC[C@](C)(O)C(=O)Nc2ccc(C#N)c(C(F)(F)F)c2)cc1 [Compound 1.1b, (S)—N-(4-cyano-3-(trifluoromethyl)phenyl)-3-(4-((8R,9S)-5-fluoro-9-(1-methyl-1H-1,2,4-triazol-5-yl)-3-oxo-3,7,8,9-tetrahydro-2H-pyrido[4,3,2-de]phthalazin-8-yl)phenoxy)-2-hydroxy-2-methylpropanamide] | < 5.00 | < 5.00 | 7.22 | 7.52
3 | Cn1ncnc1[C@@H]1c2n[nH]c(=O)c3cc(F)cc(c23)N[C@H]1c1ccc(N2C(=S)N(c3ccc(C#N)c(C(F)(F)F)c3)C(=O)C2(C)C)cc1 [Compound 1.2b, 4-(3-(4-((8R,9S)-5-fluoro-9-(1-methyl-1H-1,2,4-triazol-5-yl)-3-oxo-3,7,8,9-tetrahydro-2H-pyrido[4,3,2-de]phthalazin-8-yl)phenyl)-4,4-dimethyl-5-oxo-2-thioxoimidazolidin-1-yl)-2-(trifluoromethyl)benzonitrile] | < 5.00 | < 5.00 |  | 7.70
4 | CC1(C)C(=O)N(c2ccc(C#N)c(C(F)(F)F)c2)C(=S)N1C1CCN(C(=O)c2cc(Cc3n[nH]c(=O)c4ccccc34)ccc2F)CC1 [Compound 1.3, 4-(3-(1-(2-fluoro-5-((4-oxo-3,4-dihydrophthalazin-1-yl)methyl)benzoyl)piperidin-4-yl)-4,4-dimethyl-5-oxo-2-thioxoimidazolidin-1-yl)-2-(trifluoromethyl)benzonitrile] |  |  | 8.52 | 9.22
